Assay results reported in PubChem BioAssay (NCI).
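Following 48 hours of exposure in 96-well plates, responses at five concentrations were used to interpolate endpoints linearly. Abbreviation: GI50, concentration required for 50% inhibition of growth. TGI: total growth inhibition.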

Columns and labels:
Experiment in all cases: NCI tumour cell line growth inhibition, 48 h
[1] = test system: 786-0 renal
[2] = test system: A549 NSCLC
[3] = test system: ACHN renal
[4] = test system: HCT-116 colon
[5] = test system: HOP-92 NSCLC
[6] = test system: NCI-H23 lung
[7] = test system: PC-3 prostate
[8] = test system: SNB-75 CNS
[9] = test system: TK-10 renal
[10] = test system: SN12C renal

## COC(=O)[C@]12CC[C@@H](C)[C@H](C)[C@@H]1C1=CC[C@@H]3[C@@]4(C)CC(=O)[C@H](OC(=O)c5ccco5)[C@@]5(C)COC(=C45)C[C@@]3(C)[C@]1(C)CC2
[1]
  GI50: 2.24 µM
  TGI: > 100 µM
[2]
  GI50: 6.31 µM
  TGI: > 100 µM
[3]
  GI50: 2.94 µM
  TGI: > 100 µM
[4]
  GI50: 0.337 µM
  TGI: > 100 µM
[5]
  GI50: 14.9 µM
  TGI: > 100 µM
[6]
  GI50: 0.936 µM
  TGI: > 100 µM
[7]
  GI50: 0.592 µM
  TGI: > 100 µM
[8]
  GI50: 6.3 µM
  TGI: > 100 µM
[9]
  GI50: 30.8 µM
  TGI: > 100 µM

## C[N+](C)(C)CC1CCCC/C1=N\O (stereo unspecified)
[1]
  TGI: > 100 µM
[2]
  TGI: > 100 µM
[3]
  TGI: > 100 µM
[4]
  TGI: > 100 µM
[5]
  TGI: > 100 µM
[6]
  TGI: > 100 µM
[10]
  TGI: > 100 µM
[9]
  TGI: > 100 µM

## Oc1ccc(Cl)cc1-c1cc(-c2ccc(F)cc2)n[nH]1
[1]
  GI50: 1.82 µM
  TGI: 3.41 µM
[2]
  GI50: 2.11 µM
  TGI: 7.2 µM
[3]
  GI50: 2.34 µM
  TGI: 7.2 µM
[4]
  GI50: 2 µM
  TGI: 5.64 µM
[6]
  GI50: 1.61 µM
  TGI: 4.09 µM
[7]
  GI50: 1.96 µM
  TGI: 8.81 µM
[10]
  GI50: 2.61 µM
  TGI: 13.3 µM
[8]
  GI50: 2.07 µM
  TGI: 9.19 µM
[9]
  GI50: 3.23 µM
  TGI: 8.74 µM

## C#CCN(C)C(=O)N(CC#C)N=O
[1]
  TGI: > 100 µM
[2]
  TGI: > 100 µM
[3]
  TGI: > 100 µM
[4]
  TGI: > 100 µM
[5]
  TGI: > 100 µM
[6]
  TGI: > 100 µM
[10]
  TGI: > 100 µM
[8]
  TGI: > 100 µM
[9]
  TGI: > 100 µM

## Nc1nc(N)c(-c2ccccc2)c(CCC(=O)Nc2ccc(Cl)cc2)n1
[1]
  TGI: > 100 µM
[2]
  TGI: > 100 µM
[3]
  TGI: > 100 µM
[4]
  TGI: > 100 µM
[5]
  TGI: > 100 µM
[6]
  TGI: > 100 µM
[10]
  TGI: > 100 µM
[8]
  TGI: > 100 µM
[9]
  TGI: > 100 µM

## CC(=O)O[C@H]1C=CC23OC(=O)[C@]1(C)[C@H]2[C@H](C(=O)O)C12CC(=O)[C@@](CO)(CC[C@H]13)C2
[1]
  TGI: > 100 µM
[2]
  TGI: > 100 µM
[3]
  TGI: > 100 µM
[4]
  TGI: > 100 µM
[5]
  TGI: > 100 µM
[6]
  TGI: > 100 µM
[10]
  TGI: > 100 µM
[9]
  TGI: > 100 µM

## OCC(O)C(OC1OC(CO)C(O)C(O)C1O)c1nn(-c2ccccc2)c2nc3cc(Cl)ccc3nc12 (stereo unspecified)
[1]
  TGI: > 100 µM
[3]
  TGI: > 100 µM
[4]
  TGI: > 100 µM
[6]
  TGI: > 100 µM
[10]
  TGI: > 100 µM
[8]
  TGI: > 100 µM
[9]
  TGI: > 100 µM

## Cc1ccc(S(=O)OC23CC4CC(CC(C4)C2)C3)cc1 (stereo unspecified)
[1]
  TGI: > 100 µM
[2]
  TGI: > 100 µM
[3]
  TGI: > 100 µM
[4]
  TGI: > 100 µM
[5]
  TGI: > 100 µM
[6]
  TGI: > 100 µM
[10]
  TGI: > 100 µM
[8]
  TGI: > 100 µM
[9]
  TGI: > 100 µM

## O=C(c1ccccc1)C1C(C(=O)c2ccccc2)C(c2ccccc2)N(c2ccccc2)C1c1ccccc1 (stereo unspecified)
[1]
  TGI: > 100 µM
[2]
  TGI: > 100 µM
[3]
  TGI: > 100 µM
[4]
  TGI: > 100 µM
[5]
  TGI: > 100 µM
[6]
  TGI: > 100 µM
[7]
  TGI: > 100 µM
[10]
  TGI: > 100 µM
[9]
  TGI: > 100 µM

## CC1=C(C(=O)Nc2ccccc2)C(c2ccc(C(C)C)cc2)C(C(=O)Nc2ccccc2)=C(C)N1
[1]
  TGI: 30.2 µM
[2]
  TGI: > 100 µM
[3]
  TGI: > 66.9 µM
[4]
  TGI: 27 µM
[5]
  TGI: 32.5 µM
[6]
  TGI: > 58.5 µM
[10]
  TGI: 27.8 µM
[8]
  TGI: 99.3 µM
[9]
  TGI: > 100 µM

## Cn1cc(NC(=O)c2cc(NC(=O)CCCCCCC(=O)Nc3cc(C(=O)Nc4cc(C(=O)NCCC(=N)N)n(C)c4)n(C)c3)cn2C)cc1C(=O)NCCC(=N)N
[1]
  TGI: 33.8 µM
[2]
  TGI: 54.4 µM
[3]
  TGI: 54 µM
[4]
  TGI: 41.6 µM
[5]
  TGI: > 100 µM
[6]
  TGI: 15.3 µM
[10]
  TGI: 33.1 µM
[8]
  TGI: 38.6 µM
[9]
  TGI: 72.9 µM

## Cc1nnc(-c2ccc(-c3nc4ccccc4o3)cc2)o1
[1]
  GI50: > 100 µM
  TGI: > 100 µM
[2]
  GI50: 26.1 µM
  TGI: > 100 µM
[3]
  GI50: > 100 µM
  TGI: > 100 µM
[4]
  GI50: > 100 µM
  TGI: > 100 µM
[5]
  GI50: > 100 µM
  TGI: > 100 µM
[6]
  GI50: > 100 µM
  TGI: > 100 µM
[7]
  GI50: 34.7 µM
  TGI: > 100 µM
[10]
  GI50: > 100 µM
  TGI: > 100 µM
[9]
  GI50: > 100 µM
  TGI: > 100 µM

## CCOC(=O)NC(=O)c1c[nH]c(=O)[nH]c1=O
[1]
  TGI: > 100 µM
[2]
  TGI: > 100 µM
[3]
  TGI: > 100 µM
[4]
  TGI: > 100 µM
[5]
  TGI: > 100 µM
[6]
  TGI: > 100 µM
[10]
  TGI: > 100 µM
[8]
  TGI: > 100 µM
[9]
  TGI: > 100 µM

## COC(=O)C1CC(C(=O)OC)c2nc3cc(C)c(C)cc3nc21 (stereo unspecified)
[1]
  TGI: > 100 µM
[2]
  TGI: > 100 µM
[3]
  TGI: > 100 µM
[5]
  TGI: > 100 µM
[6]
  TGI: > 100 µM
[10]
  TGI: > 100 µM
[8]
  TGI: > 100 µM
[9]
  TGI: > 100 µM

## Nc1ccc(C(=O)N/C(=C\c2cccc([N+](=O)[O-])c2)c2nc3c4c(ccc3[nH]2)C(=O)c2ccccc2C4=O)cc1
[1]
  TGI: > 100 µM
[2]
  TGI: > 100 µM
[4]
  TGI: > 100 µM
[5]
  TGI: 93.4 µM
[6]
  TGI: > 100 µM
[10]
  TGI: > 100 µM
[8]
  TGI: 17.8 µM
[9]
  TGI: 77 µM

## ClCC#CCSc1ncnc2c1ncn2CC#CCCl
[1]
  GI50: 1.66 µM
  TGI: 3.41 µM
[2]
  GI50: 1.76 µM
  TGI: 4.35 µM
[3]
  GI50: 1.98 µM
  TGI: 5.5 µM
[4]
  GI50: 1.42 µM
  TGI: 2.93 µM
[6]
  GI50: 1.49 µM
  TGI: 3.46 µM
[7]
  GI50: 1.41 µM
  TGI: 3.24 µM
[10]
  GI50: 1.55 µM
  TGI: 3.65 µM
[8]
  GI50: 1.42 µM
  TGI: 3.06 µM
[9]
  GI50: 2.94 µM
  TGI: 13.9 µM

## CCOC(=O)/C(C#N)=C/Nc1ccc(-c2nc3ccccc3[nH]2)cc1
[1]
  GI50: 27.2 µM
  TGI: 64.7 µM
[2]
  GI50: 52.7 µM
  TGI: > 100 µM
[3]
  GI50: 25.4 µM
  TGI: 78 µM
[4]
  GI50: > 100 µM
  TGI: > 100 µM
[5]
  GI50: 42.1 µM
  TGI: > 100 µM
[7]
  GI50: 29.8 µM
  TGI: > 100 µM
[10]
  GI50: 19.5 µM
  TGI: 55.6 µM
[8]
  GI50: 24.2 µM
  TGI: 56.7 µM
[9]
  GI50: 16.8 µM
  TGI: 54.2 µM

## COc1cc([C@@H]2c3cc4c(cc3C[C@H]3COC(=O)[C@@H]32)OCO4)cc2c1OCO2
[1]
  TGI: > 59.8 µM
[2]
  TGI: > 100 µM
[3]
  TGI: > 100 µM
[10]
  TGI: > 100 µM
[8]
  TGI: > 100 µM
[9]
  TGI: 3.48 µM

## C1C[OH+]CC[OH+]CC[OH+]CC[OH+]CC[OH+]CC[OH+]1.[Cl-].[Nb+5]
[1]
  GI50: > 100 µM
  TGI: > 100 µM
[2]
  GI50: > 100 µM
  TGI: > 100 µM
[3]
  GI50: > 100 µM
  TGI: > 100 µM
[4]
  GI50: > 100 µM
  TGI: > 100 µM
[5]
  GI50: > 100 µM
  TGI: > 100 µM
[6]
  GI50: > 100 µM
  TGI: > 100 µM
[10]
  GI50: > 100 µM
  TGI: > 100 µM
[8]
  GI50: 39.6 µM
  TGI: > 100 µM
[9]
  GI50: > 100 µM
  TGI: > 100 µM
